Source: EP0262903A2, “New acyl derivatives of 20-modified tylosin and desmycosin compounds” (priority 1986, dated 1988)
In brackets after ≈: the same amount, converted by molar mass. Where two headings read alike, the source gives them in different places.

Experiments:
[1] = tested on: Escherichia coli EC14; assay: MIC, standard agar-dilution assay; type: cell-based
Protocol: (§1) The MIC's in Table II were determined by standard agar-dilution assays. The MIC's in Table III were obtained using conventional broth-dilution microtiter tests.

[2] = tested on: Haemophilus influenzae 76; assay: MIC, standard agar-dilution assay; type: cell-based
Protocol: as §1

[3] = tested on: Haemophilus influenzae C.L.; assay: MIC, standard agar-dilution assay; type: cell-based
Protocol: as §1

[4] = tested on: Klebsiella pneumoniae X68; assay: MIC, standard agar-dilution assay; type: cell-based
Protocol: as §1

[5] = tested on: Pseudomonas aeruginosa X239; assay: MIC, standard agar-dilution assay; type: cell-based
Protocol: as §1

[6] = tested on: Staphylococcus aureus S13E; assay: MIC, standard agar-dilution assay; type: cell-based
Protocol: as §1

[7] = tested on: Staphylococcus aureus V41; assay: MIC, standard agar-dilution assay; type: cell-based
Protocol: as §1

[8] = tested on: Staphylococcus aureus X1.1; assay: MIC, standard agar-dilution assay; type: cell-based
Protocol: as §1

[9] = tested on: Staphylococcus aureus X400; assay: MIC, standard agar-dilution assay; type: cell-based
Protocol: as §1

[10] = tested on: Staphylococcus epidermidis 222; assay: MIC, standard agar-dilution assay; type: cell-based
Protocol: as §1

[11] = tested on: Staphylococcus epidermidis EPI1; assay: MIC, standard agar-dilution assay; type: cell-based
Protocol: as §1

[12] = tested on: Streptococcus faecalis 2041; assay: MIC, standard agar-dilution assay; type: cell-based; details: Enterococcus faecalis
Protocol: as §1

[13] = tested on: Streptococcus faecalis X66; assay: MIC, standard agar-dilution assay; type: cell-based; details: Enterococcus faecalis
Protocol: as §1

[14] = tested on: Streptococcus pneumoniae Park I; assay: MIC, standard agar-dilution assay; type: cell-based
Protocol: as §1

[15] = tested on: Streptococcus pyogenes C203; assay: MIC, standard agar-dilution assay; type: cell-based
Protocol: as §1

[16] = tested on: Streptococcus pyogenes C203; assay: ED50 in mice experimentally infected with S. pyogenes C203; type: in vivo
Protocol: The formula 1 compounds have shown in vivo antimicrobial activity against experimentally-induced infections in laboratory animals. When two doses of test compound were administered to mice experimentally infected with S. pyogenes C203, the activity observed was measured as an ED₅₀ value [effective dose in mg/kg to protect 50% of the test animals: see Warren Wick, et 5 al., J. Bacteriol. 81, 233-235 (1961)].

[17] = Escherichia coli EC14, agar dilution, read-out: MIC
[18] = Haemophilus influenzae 76, Ampicillin-resistant strain, agar dilution, read-out: MIC
[19] = Haemophilus influenzae C.L., Ampicillin-sensitive strain, agar dilution, read-out: MIC
[20] = Pseudomonas aeruginosa X239, agar dilution, read-out: MIC
[21] = Staphylococcus aureus V41, Penicillin-resistant strain, agar dilution, read-out: MIC
[22] = Staphylococcus aureus X1.1, agar dilution, read-out: MIC
[23] = Staphylococcus aureus X400, Methicillin-resistant strain, agar dilution, read-out: MIC
[24] = Staphylococcus epidermidis 222, agar dilution, read-out: MIC
[25] = Staphylococcus epidermidis EPI1, agar dilution, read-out: MIC
[26] = Streptococcus faecalis 2041, agar dilution, read-out: MIC
[27] = Streptococcus faecalis X66, agar dilution, read-out: MIC
[28] = Streptococcus pneumoniae Park I, agar dilution, read-out: MIC
[29] = Streptococcus pyogenes C203, agar dilution, read-out: MIC
[30] = C203, mice, oral, two doses given 1 and 4 hours post-infection, dose protecting 50% of the test animals, read-out: ED50 Oral
[31] = C203, sc, mice, subcutaneous, two doses given 1 and 4 hours post-infection, dose protecting 50% of the test animals, read-out: ED50 Subcutaneous

Compound | MIC [1, 17] | MIC [2, 18] | MIC [3, 19] | MIC ([4]; Klebsiella pneumoniae, X68) | MIC [5, 20] | MIC [6] | MIC [7, 21] | MIC [8, 22] | MIC [9, 23] | MIC [10, 24] | MIC [11, 25] | MIC [12, 26] | MIC [13, 27] | MIC [14, 28] | MIC [15, 29] | also measured
CCC1OC(=O)CC(O)C(C)C(OC2OC(C)C(OC(C)=O)C(N(C)C)C2OC(C)=O)C(CCOc2ccccc2)CC(C)C(=O)C=CC(C)=CC1COC1OC(C)C(OC(C)=O)C(OC)C1OC (stereo not drawn) [Compound 1, 2ʹ,4ʹ,4ʹʹ-Tri-O-acetyl-20-DH-20-O-phenyl-desmycosin] | > 128 µg/mL | > 128 µg/mL | > 128 µg/mL | > 128 µg/mL | > 128 µg/mL | 4 µg/mL (≈ 4.1 µM) | 2 µg/mL (≈ 2.05 µM) | 4 µg/mL (≈ 4.1 µM) | 4 µg/mL (≈ 4.1 µM) | 1 µg/mL (≈ 1.02 µM) | 4 µg/mL (≈ 4.1 µM) | 128 µg/mL (≈ 131 µM) | 64 µg/mL (≈ 65.6 µM) | 8 µg/mL (≈ 8.2 µM) | 1 µg/mL (≈ 1.02 µM) | 
CCC1OC(=O)CC(O)C(C)C(OC2OC(C)C(O)C(N(C)C)C2O)C(CCOc2ccccc2)CC(C)C(=O)C=CC(C)=CC1COC1OC(C)C(OC(=O)Cc2ccccc2)C(OC)C1OC (stereo not drawn) [Compound 4, 20-DH-20-O-Phenyl-4ʹʹ-O-(phenylacetyl)-desmycosin] |  |  |  | > 128 µg/mL |  | 2 µg/mL (≈ 2.07 µM) |  |  |  |  |  |  |  |  |  | MIC ([1]; Escherichia coli, EC14): > 128 µg/mL; MIC ([2]; Haemophilus influenzae, 76): 128 µg/mL (≈ 132 µM); MIC ([3]; Haemophilus influenzae): 128 µg/mL (≈ 132 µM); MIC ([5]; Pseudomonas aeruginosa, X239): > 128 µg/mL; MIC ([7]; Staphylococcus aureus, V41): 2 µg/mL (≈ 2.07 µM); MIC ([8]; Staphylococcus aureus, X1.1): 2 µg/mL (≈ 2.07 µM); MIC ([9]; Staphylococcus aureus, X400): 2 µg/mL (≈ 2.07 µM); MIC ([10]; Staphylococcus epidermidis, 222): 1 µg/mL (≈ 1.03 µM); MIC ([11]; Staphylococcus epidermidis, EPI1): 2 µg/mL (≈ 2.07 µM); MIC [12]; 2041: 64 µg/mL (≈ 66.1 µM); MIC ([13]; X66): 16 µg/mL (≈ 16.5 µM); MIC ([14]; Streptococcus pneumoniae): 4 µg/mL (≈ 4.13 µM); MIC ([15]; Streptococcus pyogenes, C203): 2 µg/mL (≈ 2.07 µM); ED50 ([16]; C203, po, read-out: ED50 Oral): 14.2 mg/kg; ED50 ([16]; C203, sc, read-out: ED50 Subcutaneous): > 10 mg/kg
CCC1OC(=O)CC(O)C(C)C(OC2OC(C)C(O)C(N(C)C)C2O)C(CCOc2ccccc2)CC(C)C(=O)C=CC(C)=CC1COC1OC(C)C(OC(=O)C(NC(=O)OC(C)(C)C)c2ccccc2)C(OC)C1OC [Compound 6, 4ʹʹ-O-(N-BOC)-D-phenylglycyl-20-DH-20-O-phenyl-desmycosin] | > 128 µg/mL | > 128 µg/mL | > 128 µg/mL | > 128 µg/mL | > 128 µg/mL | 16 µg/mL (≈ 14.8 µM) | 8 µg/mL (≈ 7.38 µM) | 8 µg/mL (≈ 7.38 µM) | 8 µg/mL (≈ 7.38 µM) | 8 µg/mL (≈ 7.38 µM) | 16 µg/mL (≈ 14.8 µM) | > 128 µg/mL | > 128 µg/mL | 16 µg/mL (≈ 14.8 µM) | 8 µg/mL (≈ 7.38 µM) | 
CCC1OC(=O)CC(O)C(C)C(OC2OC(C)C(O)C(N(C)C)C2O)C(CCOc2ccccc2)CC(C)C(=O)C=CC(C)=CC1COC1OC(C)C(OC(=O)C(N)c2ccccc2)C(OC)C1OC [Compound 7, 20-DH-20-O-Phenyl-4ʹʹ-O-(D-phenylglycyl)-desmycosin] | > 128 µg/mL | 64 µg/mL (≈ 65.1 µM) | 128 µg/mL (≈ 130 µM) | > 128 µg/mL | > 128 µg/mL | 1 µg/mL (≈ 1.02 µM) | 2 µg/mL (≈ 2.03 µM) | 1 µg/mL (≈ 1.02 µM) | 1 µg/mL (≈ 1.02 µM) | 1 µg/mL (≈ 1.02 µM) | 2 µg/mL (≈ 2.03 µM) | 32 µg/mL (≈ 32.5 µM) | 16 µg/mL (≈ 16.3 µM) | 2 µg/mL (≈ 2.03 µM) | 2 µg/mL (≈ 2.03 µM) | ED50 [16, 30]: 21 mg/kg; ED50 [16, 31]: > 10 mg/kg
CCC1OC(=O)CC(O)C(C)C(OC2OC(C)C(OC(C)=O)C(N(C)C)C2OC(C)=O)C(CCOc2ccccc2)CC(C)C(=O)C=CC(C)=CC1COC1OC(C)C(OC(=O)CCl)C(OC)C1OC (stereo not drawn) [Compound 8, 2ʹ,4ʹ-Di-O-acetyl-4ʹʹ-O-(chloroacetyl)-20-DH-20-O-phenyl-desmycosin] | > 128 µg/mL | > 128 µg/mL | > 128 µg/mL | > 128 µg/mL | > 128 µg/mL | 2 µg/mL (≈ 1.98 µM) | 2 µg/mL (≈ 1.98 µM) | 2 µg/mL (≈ 1.98 µM) | 2 µg/mL (≈ 1.98 µM) | 2 µg/mL (≈ 1.98 µM) | 2 µg/mL (≈ 1.98 µM) | 128 µg/mL (≈ 127 µM) | 32 µg/mL (≈ 31.7 µM) | 8 µg/mL (≈ 7.92 µM) | 2 µg/mL (≈ 1.98 µM) | 
CCC1OC(=O)CC(O)C(C)C(OC2OC(C)C(O)C(N(C)C)C2O)C(CCOc2ccccc2)CC(C)C(=O)C=CC(C)=CC1COC1OC(C)C(OC(=O)CNCc2ccccc2)C(OC)C1OC (stereo not drawn) [Compound 11, 4ʹʹ-O-(N-Benzylaminoacetyl)-20-DH-20-O-phenyl-desmycosin] | > 128 µg/mL | 64 µg/mL (≈ 64.2 µM) | 128 µg/mL (≈ 128 µM) | > 128 µg/mL | > 128 µg/mL | 2 µg/mL (≈ 2.01 µM) | 2 µg/mL (≈ 2.01 µM) | 1 µg/mL (≈ 1 µM) | 2 µg/mL (≈ 2.01 µM) | 2 µg/mL (≈ 2.01 µM) | 2 µg/mL (≈ 2.01 µM) | 8 µg/mL (≈ 8.02 µM) | 8 µg/mL (≈ 8.02 µM) | 2 µg/mL (≈ 2.01 µM) | 2 µg/mL (≈ 2.01 µM) | ED50 [16, 30]: 14.4 mg/kg; ED50 [16, 31]: 5.7 mg/kg
CCC(C)CN(CC)CCC1CC(C)C(=O)C=CC(C)=CC(COC2OC(C)C(OC(C)=O)C(OC)C2OC)C(CC)OC(=O)CC(O)C(C)C1OC1OC(C)C(O)C(N(C)C)C1O (stereo not drawn) [Compound 17, 4ʹʹ-O-Acetyl-20-DH-20-deoxy-20-[N-ethyl-N-(2-methylbutyl)amino]desmycosin] | > 128 µg/mL | 128 µg/mL (≈ 140 µM) | 64 µg/mL (≈ 70.1 µM) |  | > 128 µg/mL | 8 µg/mL (≈ 8.76 µM) | 8 µg/mL (≈ 8.76 µM) | 8 µg/mL (≈ 8.76 µM) | 4 µg/mL (≈ 4.38 µM) | 4 µg/mL (≈ 4.38 µM) | 8 µg/mL (≈ 8.76 µM) | 64 µg/mL (≈ 70.1 µM) | 64 µg/mL (≈ 70.1 µM) | 4 µg/mL (≈ 4.38 µM) | 4 µg/mL (≈ 4.38 µM) | MIC ([4]; Klebsiella pneumoniae X68, agar dilution, read-out: MIC): > 128 µg/mL
CCC1OC(=O)CC(O)C(C)C(OC2OC(C)C(O)C(N(C)C)C2O)C(CCN2CC(C)CC(C)C2)CC(C)C(=O)C=CC(C)=CC1COC1OC(C)C(OC(C)=O)C(OC)C1OC (stereo not drawn) [Compound 19, 4ʹʹ-O-Acetyl-20-DH-20-deoxy-20-(3,5-dimethylpiperidin-1-yl)-desmycosin] | > 128 µg/mL | 64 µg/mL (≈ 70.2 µM) | 32 µg/mL (≈ 35.1 µM) | > 128 µg/mL | > 128 µg/mL | 1 µg/mL (≈ 1.1 µM) | 1 µg/mL (≈ 1.1 µM) | 2 µg/mL (≈ 2.19 µM) | 1 µg/mL (≈ 1.1 µM) | 1 µg/mL (≈ 1.1 µM) | 1 µg/mL (≈ 1.1 µM) | 8 µg/mL (≈ 8.78 µM) | 8 µg/mL (≈ 8.78 µM) | 0.125 µg/mL (≈ 0.137 µM) | 0.125 µg/mL (≈ 0.137 µM) | 
